Data published in US9980967B1, “Method for overcoming drug resistance of EGFR mutation and cancerous stemness of human non-small cell lung carcinoma” (NATIONAL CHIAO TUNG UNIVERSITY, priority 2017, dated 2018).

How the values were obtained:
H1975 xenograft tumors = test: Xenografted human NSCLC (H1975) tumors in nude mice; format: in vivo; settings: 30 mg/kg once per four days, during the treatment period
From the text: The results were obtained from twelve mice and the bar represents the mean±S.E.M.**p<0.01, indicating significant difference between control and SP101 treatment group mice. ###p<0.001 indicates significant differences between SP101 and Gefitinib-treated mice.
The tumor weight was means±*p<0.05 indicating significant differences between control and SP101 treatment group mice. #p<0.05 indicates significant differences between SP101 and Gefitinib-treated mice.
NSCLC tumors in nude mice were established. Seven-week-old nude mice were subcutaneously injected with 3×10^6 H1975 cells. Please refer to FIGS. 7 and 8. After 7 to 10 days inoculation, the nude mice were treated with vehicle or 30 mg/kg SP101 or 30 mg/kg Gefitinib once per four days and tumor sizes in the nude mice were measured every four days. The nude mice were sacrificed after treatment for 16 days; the tumors were harvested to measure tumor volume/weight and further analyze tumor tissues. […] Please refer to FIG. 9.

A549-ON cells = test: Annexin V/PI apoptosis flow cytometry in A549-ON cells; format: cell-based, human; settings: 30 μM, early and late apoptosis, flow cytometry
Protocol: At the end of treatment, apoptosis was measured by Annexin V-PI staining using flow cytometry analysis. The population of Annexin V+/PI− cells represents cells undergoing early apoptosis (low right), whereas the fraction of Annexin V+/PI+ cell are those undergoing late apoptosis (upper right). The representative flow data were shown from one of three separate experiments with similar findings.
The bar represents the mean±S.E.M. ***p<0.001 indicates significant difference between untreated and SP101 or Gefitinib treated samples.
We compared the apoptosis levels of SP101 and Gefitinib in cancer stem-like A549-ON cells by Annexin V and PI staining. Please refer to FIG. 19. […] Please refer to FIG. 20. The average of total apoptosis follows SP101 and Gefitinib in the A549-ON cells around 69.29% and 7.59%, respectively.

With COc1cc2ncnc(Nc3ccc(F)c(Cl)c3)c2cc1OCCCN1CCOCC1 [Gefitinib, reference compound] the “body weight of the nude mice” value (H1975 xenograft tumors) was “did not alter” and the “average of total apoptosis” value (A549-ON cells) was roughly 7.59%.
